Experiment [1] has as its target T1, CCK-Receptor (Rattus norvegicus, UniProt P30551).
T1 construct: Pancreatic plasma membranes were prepared by the method of Chang et al; from tissue; host or cells: pancreatic plasma membranes of male Wistar rats
T1 sequence (P30551 1-444): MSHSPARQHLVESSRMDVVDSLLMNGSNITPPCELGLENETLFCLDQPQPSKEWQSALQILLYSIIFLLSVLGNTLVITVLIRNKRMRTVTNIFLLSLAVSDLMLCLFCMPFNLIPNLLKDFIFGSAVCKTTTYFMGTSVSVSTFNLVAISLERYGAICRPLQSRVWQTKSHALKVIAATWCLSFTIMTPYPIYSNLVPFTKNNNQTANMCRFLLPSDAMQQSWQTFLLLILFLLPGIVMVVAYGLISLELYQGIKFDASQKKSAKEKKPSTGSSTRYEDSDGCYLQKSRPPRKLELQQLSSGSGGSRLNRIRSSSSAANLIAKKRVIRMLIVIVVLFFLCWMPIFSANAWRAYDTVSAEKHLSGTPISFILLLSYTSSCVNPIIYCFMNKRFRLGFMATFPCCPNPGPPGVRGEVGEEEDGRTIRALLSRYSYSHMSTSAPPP
Kind of experiment: CCK-Receptor Binding Assay in Pancreas. The following applies: inhibition of specific 125I-CCK-8 (30 pM) binding, rat pancreatic plasma membranes, 37° C., 30 minutes, pH 7.4. Further details: species or system Male Wistar rats. The procedure:
CCK-Receptor Binding Assay in Pancreas
Pancreatic plasma membranes were prepared by the method of Chang et al. (Molecular Pharmacology, Vol. 30, p. 212-, 1986). Male Wistar rats were sacrificed by decapitation and the pancreas was removed. The pancreas was dissected free from adipose tissue and minced in 50 volumes ice-cold Tris-HCl buffer (50 mM, pH 7.4 at 37° C.). Homogenization was performed using ultra disperser and the homogenate was centrifuged at 50,000×g for 10 minutes. The pellet was washed by resuspension in the same volume of fresh Tris-HCl buffer and again centrifuged as above. The final pellet was suspended in assay buffer (50 mM Tris-HCl, 5 mM MgCl2, 5 mM dithiothreitol, 2 mg/ml of bovine serum albumin, and 0.14 mg/ml of bacitracin), and used as receptor sources for binding assay.
Thirty pM ^125 I-CCK-8 (final concentration), test drug or vehicle (for total binding) or 10^-6 M CCK-8 (for nonspecific binding) were added to the assay medium containing pancreatic plasma membranes (0.5 mg of original wet weight/ml). After incubation at 37° C. for 30 minutes, the assay medium was filtrated under reduced pressure through glass fiber filter and washed four times with 4 ml of ice-cold Tris-HCl buffer. The radioactivity trapped on the filter was counted by γ-counter (Packard 5650).
Specific binding was defined as the radioactivity bound after subtracting nonspecific binding determined in the presence of 10^-6 M unlabeled CCK-8. IC50 value was calculated from inhibition percentage of specific binding by each test drug.

Experiment [2] concerns gallbladder contraction induced by CCK-8. Kind of experiment: CCK-Antagonism in Isolated Gallbladder. The following applies: Cavia porcellus; antagonism of gallbladder strip contraction induced by 10^-8 M CCK-8, 37° C. The class given is cell-based, male Hartley guinea-pig. As for the experimental part:
CCK-Antagonism in Isolated Gallbladder
Gallbladder strips isolated from male Hartley guinea-pig were prepared and suspended in Magnus bath filled with Krebs solution (1 g of initial tension). The solution kept at 37° C. was aerated with a mixture of 95% O2 and 5% CO2. The isometric contraction of strips was recorded through a force-displacement transducer. Antagonism by test drugs against gallbladder contraction induced by 10^-8 M CCK-8 was examined and IC50 value was calculated.

Experiment [3] has as its system amylase secretion stimulated by CCK-8. Kind of experiment: Effect on Amylase Secretion in Rats. The following applies: Rattus norvegicus, intraduodenal administration 30 minutes before CCK-8 (10 μg/kg, subcutaneous), anesthetized rats. In kind it is in vivo, Male Wistar rats. The procedure:
Effect on Amylase Secretion in Rats
Male Wistar rats were anesthetized with urethane (1.5 g/kg, S.C.), and tracheal cannula was inserted. Biliopancreatic juice was collected from the cannula which had been inserted into the common bile duct. Thirty minutes after intraduodenal administration of test drug, amylase secretion was stimulated by subcutaneous injection of CCK-8 (10 μg/kg). Amylase concentration in the sample collected every 30 minutes during experiment was assayed using Amylase B Test (Wako), and ED50 value was calculated.

Structures are written as SMILES.

As a reminder, the IC50 is the concentration that gives 50% inhibition. High values mean weaker potency, low ones greater potency. One may read the ED50 as the dose at which the effect has come halfway, by size or by number of responders. A lower ED50 goes with an effect at a small dose.

Consider `CCCCCN(CCCCC)C(=O)C(CC(=O)O)CS(=O)(=O)c1ccc(Cl)c(Cl)c1` (racemic) [Compound 29], for which, in experiment [1], the IC50 worked out at 95 nM. `CCCCCN(CCCc1ccccc1)C(=O)C(CCC(=O)O)CS(=O)(=O)c1ccc(Cl)c(Cl)c1` (stereo not drawn) [Compound 43] yielded an IC50 in experiment [1] of 110 nM. For the compound `CCCCCN(CCCCC)C(=O)C(CCC(=O)O)CS(=O)(=O)c1cccc(Br)c1` (racemic) [Compound 28], in experiment [1], the IC50 worked out at 3000 nM. On to `CCCCCCN(CCCCc1ccccc1)C(=O)C(CCC(=O)O)CS(=O)(=O)c1ccc(Cl)c(Cl)c1` (stereo not drawn) [Compound 46], for which, in experiment [1], the IC50 was determined as 570 nM. Compared with the last compound, the IC50 is about 5.3-fold lower. In experiment [1], `CCCCCN(CCCCC)C(=O)C(CCC(=O)OC)CS(=O)(=O)c1ccc(Cl)c(Cl)c1` (racemic) [Compound 1, Methyl 5-(3,4-dichlorophenylsulfonyl)-4-(N,N-dipentylcarbamoyl)pentanoate] had an IC50 of 880 nM. Compared with the last compound, the IC50 is about 1.5-fold higher. `CCCCN(C)C(=O)C(CCC(=O)O)CS(=O)(=O)c1ccc(Cl)c(Cl)c1` (racemic) [Compound 31] returned an IC50 in experiment [1] of 8800 nM. Still for that read-out and setting: as for `CCCCCN(CCCCC)C(=O)C(CCC(=O)O)CS(=O)(=O)c1cccc(Cl)c1` (racemic) [Compound 27], the figure is 4700 nM; as for `COC(=O)CCC(CS(=O)(=O)c1ccc(Cl)c(Cl)c1)C(=O)N(C)Cc1ccccc1` (stereo not drawn) [Compound 41, methyl 4-(N-benzyl-N-methylcarbamoyl)-5-(3,4-dichlorophenylsulfonyl)pentanoate], 3500 nM; as for `CCCCCN(CCc1ccccc1)C(=O)C(CCC(=O)O)CS(=O)(=O)c1ccc(Cl)c(Cl)c1` (stereo not drawn) [Compound 42, 5-(3,4-dichlorophenylsulfonyl)-4-(N-pentyl-N-phenethylcarbamoyl)pentanoic acid], 210 nM.

Take `CN(Cc1ccccc1)C(=O)C(CCC(=O)O)CS(=O)(=O)c1ccc(Cl)c(Cl)c1` (stereo not drawn) [Compound 47]: in experiment [1], the IC50 worked out at 1800 nM. Same read-out and setting: with `CCCCCN(CCCCC)C(=O)C(CCC(=O)O)CS(=O)(=O)c1cc(Cl)cc(Cl)c1` (stereo not drawn) [Compound 25] the figure was 1500 nM. As for `CCCCCN(CCCCC)C(=O)C(CCC(=O)O)CS(=O)(=O)c1ccc(Cl)cc1` (stereo not drawn) [Compound 26], the IC50 in experiment [1] stood at 1000 nM. On the same count and under the same terms, as for `CCCCCN(CCCCC)C(=O)C(CC(=O)OC)CS(=O)(=O)c1ccc(Cl)c(Cl)c1` (stereo not drawn) [Compound 11], the figure is 980 nM; as for `CCCCCCN(CCCCc1ccccc1)C(=O)C(CCC(=O)OC)CS(=O)(=O)c1ccc(Cl)c(Cl)c1` (stereo not drawn) [Compound 40], 5800 nM. The same measure, in the same setting: with `CCCCCN(CCCCC)C(=O)C(CCCC(=O)O)CS(=O)(=O)c1ccc(Cl)c(Cl)c1` (racemic) [Compound 30] the figure was 230 nM. Compound `CCCCCN(CCCOC)C(=O)C(CCC(=O)O)CS(=O)(=O)c1ccc(Cl)c(Cl)c1` (single isomer, unassigned) [Compound 24] gave an IC50 in experiment [1] of 4000 nM. On the same count and under the same terms, as for `CCCCCN(CCCCC)C(=O)C(CCC(=O)O)CS(=O)(=O)c1ccc([N+](=O)[O-])cc1` (stereo not drawn) [Compound 50], the figure is 730 nM; as for `CC(C)CCN(CCC(C)C)C(=O)C(CCC(=O)O)CS(=O)(=O)c1ccc(Cl)c(Cl)c1` (racemic) [Compound 35], 130 nM; as for `CCCCCN(CCCCC)C(=O)C(CCCC(=O)OC)CS(=O)(=O)c1ccc(Cl)c(Cl)c1` (stereo not drawn) [Compound 12], 4800 nM. Same read-out and setting: as for `CCCCCN(CCCCC)C(=O)C(CCC(=O)O)CS(=O)(=O)c1ccc(C)c(C)c1` (stereo not drawn) [Compound 48], the figure is 290 nM; as for `CCCCCN(CCCCC)C(=O)C(CCC(=O)O)CS(=O)(=O)c1ccc(C(C)=O)cc1` (stereo not drawn) [Compound 51, 5-(4-Acetylphenylsulfonyl)-4-(N,N-dipentylcarbamoyl)pentanoic acid], 2000 nM. Still for that read-out and setting: with `CCCCCN(CCCCC)C(=O)C(CCC(=O)OCC)CS(=O)(=O)c1ccc(Cl)c(Cl)c1` (stereo not drawn) [Compound 18] the figure was 1100 nM; with `CCCCN(CCCC)C(=O)C(CCC(=O)O)CS(=O)(=O)c1ccc(Cl)c(Cl)c1` (racemic) [Compound 32], 280 nM; with `CCCCCCCN(CCCCCCC)C(=O)C(CCC(=O)O)CS(=O)(=O)c1ccc(Cl)c(Cl)c1` (racemic) [Compound 34], 430 nM. `CCCCCCN(CCCCCC)C(=O)C(CCC(=O)O)CS(=O)(=O)c1ccc(Cl)c(Cl)c1` (racemic) [Compound 33] showed an IC50 in experiment [1] of 59 nM.

For `CCCCCN(CCCCC)C(=O)C(CCC(=O)O)CS(=O)(=O)c1ccc(Cl)c(Cl)c1` (single isomer, unassigned) [Compound 21], the IC50 in experiment [1] amounted to 1100 nM. On to `CCCCCN(CCCOC)C(=O)C(CCC(=O)O)CS(=O)(=O)c1ccc(Cl)c(Cl)c1` (racemic) [Compound 22, 5-(3,4-dichlorophenylsulfonyl)-4-[N-(3-methoxypropyl)-N-pentylcarbamoyl]pentanoic acid], for which the IC50 in experiment [2] amounted to 3400 nM; in experiment [1], 230 nM. In experiment [3], this compound came in with a 50% effective dose (ED50) of 9.5 mg/kg.

`O=C(O)CCC(CS(=O)(=O)c1ccc(Cl)c(Cl)c1)C(=O)N(CCc1ccccc1)CCc1ccccc1` (stereo not drawn) [Compound 44] returned an IC50 in experiment [1] of 230 nM.

As for `CCCCCN(CCCCC)C(=O)C(CCC(=O)O)CS(=O)(=O)c1ccc(Cl)c(Cl)c1` (racemic) [Compound 19, 5-(3,4-Dichlorophenylsulfonyl)-4-(N,N-dipentylcarbamoyl)pentanoic acid], the IC50 in experiment [2] amounted to 11000 nM; in experiment [1], 200 nM. In experiment [3], this compound gave an ED50 of 2.2 mg/kg. Regarding `CCCCCN(CCCOC)C(=O)C(CCC(=O)O)CS(=O)(=O)c1ccc(Cl)c(Cl)c1` (single isomer, unassigned) [Compound 23], the IC50 in experiment [1] worked out at 290 nM.

As to `O=C(O)CCC(CS(=O)(=O)c1ccc(Cl)c(Cl)c1)C(=O)N(CCCc1ccccc1)CCCc1ccccc1` (stereo not drawn) [Compound 45], the IC50 in experiment [1] stood at 1000 nM. The same measure, in the same setting: as for `CCCCCN(CCCCC)C(=O)C(CCC(=O)O)CS(=O)(=O)c1ccc(C)cc1` (stereo not drawn) [Compound 49], the figure is 3400 nM. In the case of `CCCCCN(CCCCC)C(=O)C(CCC(=O)O)CS(=O)(=O)c1ccc(Cl)c(Cl)c1` (single isomer, unassigned) [Compound 20], the results for the IC50 in experiment [2] and in experiment [1] were 5100 nM and 110 nM, respectively. The compound also yielded an ED50 in experiment [3] of 4.7 mg/kg.

The record behind these values is patent US5145869A, “Phenylsulfonylalkanoic acid compounds and pharmaceuticals thereof” (Kissei Pharmaceutical Co., Ltd., priority 1991, dated 1992).
